Assay results: patent publication US20240325544A1, “CATIONIC LIPID FOR COVALENT MODIFICATION OF PEPTIDES” (PharmalN Corporation, priority 2023, published 2024)
Read-outs that look alike come from different tables or passages of the source. Marks after values point to notes of the source that are not given here. Bridge positions count the residues as written; N and C are the ends. Square brackets hold non-standard residues; d marks the D form. Peptide text beside a SMILES is read from it. * marks the point of attachment. C18 diacid = O=C(O)CCCCCCCCCCCCCCCCC(=O)*; Palmitoyl = CCCCCCCCCCCCCCCC(=O)*; Dab = NCC[C@H](N)C(=O)O; Dap = NC[C@H](N)C(=O)O; AEEA = NCCOCCOCC(=O)O; GABA = NCCCC(=O)O

Tests used:
[1] = test system: cGMP; experiment: Plasma cGMP after SC bolus of natriuretic peptides in CD-1 mice (pharmacodynamics, Table 3); format: in vivo; details: SC bolus 1.0 mg/kg (≤0.45 μmol/kg), baseline 10 +/−8 pmol/ml, n = 3-5
Description: (§1) The test articles were formulated or dissolved in sterile water for injection on the same day of administration. […] Blood samples were collected via retro-orbital bleed at 2- and 6-hours post-injection, with two bleedings per animal at two different timepoints. The samples were collected in K2EDTA tubes, processed by centrifugation (2000×g; 15 m 4 eC within 30 minutes after collection), and the resulting plasma samples were stored at −80° C. Biochemical analysis: The plasma concentration of the respective natriuretic peptide was analyzed using commercially available ELISA kits from Phoenix Pharmaceuticals (Burlingame, CA): ANP ELISA (cat #EKE-005-06), BNP ELISA (cat #EKE-011-03), and CNP ELISA (cat #EKE-012-03). […] Plasma cGMP was analyzed using a commercially available kit from Abcam (ab133052, Waltham, MA).

[2] = Plasma concentration of respective natriuretic peptide by ELISA after SC bolus in CD-1 mice (pharmacokinetics, Table 3); details: male, CD-1, mouse, in vivo
Description: as §1

SMILES	level at 2 h ([2]; sc, 1 mg/kg)	level at 6 h ([2]; sc, 1 mg/kg)	Plasma concentration of cGMP, 2 hr [1]	Plasma concentration of cGMP, 6 hr [1]	level at 2 h ([2]; mice, SC bolus 1.0 mg/kg (≤0.45 μmol/kg), 2 hr, ELISA, n = 3-5, read-out: Plasma concentration of respective Natriuretic Peptide, ANP, BNP, or CNP, 2 hr)	level at 6 h ([2]; mice, SC bolus 1.0 mg/kg (≤0.45 μmol/kg), 6 hr, ELISA, n = 3-5, read-out: Plasma concentration of respective Natriuretic Peptide, ANP, BNP, or CNP, 6 hr)
CC[C@H](C)[C@@H]1NC(=O)[C@H](CCCNC(=N)N)NC(=O)[C@H](CC(=O)O)NC(=O)[C@H](CCSC)NC(=O)[C@H](CCCCN)NC(=O)[C@H](CCCNC(=N)N)NC(=O)CNC(=O)[C@H](Cc2ccccc2)NC(=O)[C@@H](NC(=O)CNC(=O)[C@H](CO)NC(=O)CNC(=O)[C@H](CCC(N)=O)NC(=O)[C@@H](NC(=O)[C@H](CCSC)NC(=O)[C@H](CCCCN)NC(=O)[C@@H]2CCCN2C(=O)[C@@H](N)CO)C(C)C)CSSC[C@@H](C(=O)N[C@@H](CCCCN)C(=O)N[C@H](C(=O)N[C@@H](CC(C)C)C(=O)N[C@@H](CCCNC(=N)N)C(=O)N[C@@H](CCCNC(=N)N)C(=O)N[C@@H](Cc2c[nH]cn2)C(=O)O)C(C)C)NC(=O)CNC(=O)[C@H](CC(C)C)NC(=O)CNC(=O)[C@H](CO)NC(=O)[C@H](CO)NC(=O)[C@H](CO)NC(=O)[C@H](CO)NC1=O [SEQ ID NO: 48, reference compound]			10.57 pmol/mL	8.48 pmol/mL	23.3 ng/mL	30.6 ng/mL
CCCCCCCCCCCCCCCC(=O)NCCCC(=O)NCCCC(=O)NCCCC(=O)N[C@@H](CCN)C(=O)N[C@@H](CCN)C(=O)NCC(=O)N[C@@H](CC(C)C)C(=O)N[C@@H](CO)C(=O)N[C@@H](CCCCN)C(=O)NCC(=O)N[C@H]1CSSC[C@@H](C(=O)O)NC(=O)CNC(=O)[C@H](CC(C)C)NC(=O)CNC(=O)[C@H](CO)NC(=O)[C@H](CCC(N)=O)NC(=O)[C@H](CO)NC(=O)CNC(=O)[C@H]([C@@H](C)CC)NC(=O)[C@H](CCCNC(=N)N)NC(=O)[C@H](CC(=O)O)NC(=O)[C@H](CC(C)C)NC(=O)[C@H](CCCCN)NC(=O)[C@H](CC(C)C)NC(=O)CNC(=O)[C@H](Cc2ccccc2)NC1=O [SEQ ID NO: 36] ({Palmitoyl-GABA-GABA-GABA}-[Dab][Dab]GLSKGCFGLKLDRIGSQSGLGC-OH; disulfide 8-24; C-terminus assumed)	7.57 ng/mL	2.57 ng/mL	54.61*** pmol/mL	41.75** pmol/mL		
CC[C@H](C)[C@@H]1NC(=O)[C@H](CCCNC(=N)N)NC(=O)[C@H](CC(=O)O)NC(=O)[C@H](CC(C)C)NC(=O)[C@H](CCCCN)NC(=O)[C@H](CC(C)C)NC(=O)CNC(=O)[C@H](Cc2ccccc2)NC(=O)[C@@H](NC(=O)CNC(=O)[C@H](CCCCN)NC(=O)[C@H](CO)NC(=O)[C@H](CC(C)C)NC(=O)CNC(=O)[C@H](CCN)NC(=O)[C@H](CCN)NC(=O)COCCOCCNC(=O)COCCOCCNC(=O)COCCOCCNC(=O)CCCCCCCCCCCCCCCCC(=O)O)CSSC[C@@H](C(=O)O)NC(=O)CNC(=O)[C@H](CC(C)C)NC(=O)CNC(=O)[C@H](CO)NC(=O)[C@H](CCC(N)=O)NC(=O)[C@H](CO)NC(=O)CNC1=O [SEQ ID NO: 33] ({C18 diacid-AEEA-AEEA-AEEA}-[Dab][Dab]GLSKGCFGLKLDRIGSQSGLGC-OH; disulfide 8-24; C-terminus assumed)	75.9 ng/mL	68.2 ng/mL	25.91** pmol/mL	31.61* pmol/mL		
CCCCCCCCCCCCCCCC(=O)NCCOCCOCC(=O)NCCOCCOCC(=O)N[C@@H](CN)C(=O)N[C@@H](CCN)C(=O)NCC(=O)N[C@@H](CC(C)C)C(=O)N[C@@H](CO)C(=O)N[C@@H](CCCCN)C(=O)NCC(=O)N[C@H]1CSSC[C@@H](C(=O)O)NC(=O)CNC(=O)[C@H](CC(C)C)NC(=O)CNC(=O)[C@H](CO)NC(=O)[C@H](CCC(N)=O)NC(=O)[C@H](CO)NC(=O)CNC(=O)[C@H]([C@@H](C)CC)NC(=O)[C@H](CCCNC(=N)N)NC(=O)[C@H](CC(=O)O)NC(=O)[C@H](CC(C)C)NC(=O)[C@H](CCCCN)NC(=O)[C@H](CC(C)C)NC(=O)CNC(=O)[C@H](Cc2ccccc2)NC1=O [SEQ ID NO: 35] ({Palmitoyl-AEEA-AEEA}-[Dap][Dab]GLSKGCFGLKLDRIGSQSGLGC-OH; disulfide 8-24; C-terminus assumed)	12.9 ng/mL	4.13 ng/mL	65.28**** pmol/mL	35.10** pmol/mL		

Further lines, with some results ahead:

level at 2 h ([2]; sc, 1 mg/kg)	level at 6 h ([2]; sc, 1 mg/kg)	SMILES	Plasma concentration of cGMP, 2 hr [1]	Plasma concentration of cGMP, 6 hr [1]	level at 2 h ([2]; mice, SC bolus 1.0 mg/kg (≤0.45 μmol/kg), 2 hr, ELISA, n = 3-5, read-out: Plasma concentration of respective Natriuretic Peptide, ANP, BNP, or CNP, 2 hr)	level at 6 h ([2]; mice, SC bolus 1.0 mg/kg (≤0.45 μmol/kg), 6 hr, ELISA, n = 3-5, read-out: Plasma concentration of respective Natriuretic Peptide, ANP, BNP, or CNP, 6 hr)
26.7 ng/mL	30.1 ng/mL	CCCCCCCCCCCCCCCC(=O)NCCOCCOCC(=O)NCCOCCOCC(=O)NCCOCCOCC(=O)N[C@@H](CCN)C(=O)NCC(=O)N[C@@H](CC(C)C)C(=O)N[C@@H](CO)C(=O)N[C@@H](CCCCN)C(=O)NCC(=O)N[C@H]1CSSC[C@@H](C(=O)O)NC(=O)CNC(=O)[C@H](CC(C)C)NC(=O)CNC(=O)[C@H](CO)NC(=O)[C@H](CCC(N)=O)NC(=O)[C@H](CO)NC(=O)CNC(=O)[C@H]([C@@H](C)CC)NC(=O)[C@H](CCCNC(=N)N)NC(=O)[C@H](CC(=O)O)NC(=O)[C@H](CC(C)C)NC(=O)[C@H](CCCCN)NC(=O)[C@H](CC(C)C)NC(=O)CNC(=O)[C@H](Cc2ccccc2)NC1=O [SEQ ID NO: 41] ({Palmitoyl-AEEA-AEEA-AEEA}-[Dab]GLSKGCFGLKLDRIGSQSGLGC-OH; disulfide 7-23; C-terminus assumed)	124.77*** pmol/mL	67.78**** pmol/mL		
31.7 ng/mL	25.9 ng/mL	CCCCCCCCCCCCCCCC(=O)N[C@@H](CCC(=O)O)C(=O)NCCOCCOCC(=O)NCCOCCOCC(=O)N[C@@H](CCN)C(=O)N[C@@H](CCN)C(=O)NCC(=O)N[C@@H](CC(C)C)C(=O)N[C@@H](CO)C(=O)N[C@@H](CCCCN)C(=O)NCC(=O)N[C@H]1CSSC[C@@H](C(=O)O)NC(=O)CNC(=O)[C@H](CC(C)C)NC(=O)CNC(=O)[C@H](CO)NC(=O)[C@H](CCC(N)=O)NC(=O)[C@H](CO)NC(=O)CNC(=O)[C@H]([C@@H](C)CC)NC(=O)[C@H](CCCNC(=N)N)NC(=O)[C@H](CC(=O)O)NC(=O)[C@H](CC(C)C)NC(=O)[C@H](CCCCN)NC(=O)[C@H](CC(C)C)NC(=O)CNC(=O)[C@H](Cc2ccccc2)NC1=O [SEQ ID NO: 38] (Palmitoyl-E[AEEA][AEEA][Dab][Dab]GLSKGCFGLKLDRIGSQSGLGC-OH; disulfide 11-27; C-terminus assumed)	74.69* pmol/mL	38.95*** pmol/mL		
11.9 ng/mL	5.77 ng/mL	CCCCCCCCCCCCCCCC(=O)NCCCC(=O)NCCCC(=O)N[C@@H](CCN)C(=O)N[C@@H](CCN)C(=O)NCC(=O)N[C@@H](CC(C)C)C(=O)N[C@@H](CO)C(=O)N[C@@H](CCCCN)C(=O)NCC(=O)N[C@H]1CSSC[C@@H](C(=O)O)NC(=O)CNC(=O)[C@H](CC(C)C)NC(=O)CNC(=O)[C@H](CO)NC(=O)[C@H](CCC(N)=O)NC(=O)[C@H](CO)NC(=O)CNC(=O)[C@H]([C@@H](C)CC)NC(=O)[C@H](CCCNC(=N)N)NC(=O)[C@H](CC(=O)O)NC(=O)[C@H](CC(C)C)NC(=O)[C@H](CCCCN)NC(=O)[C@H](CC(C)C)NC(=O)CNC(=O)[C@H](Cc2ccccc2)NC1=O [SEQ ID NO: 37] ({Palmitoyl-GABA-GABA}-[Dab][Dab]GLSKGCFGLKLDRIGSQSGLGC-OH; disulfide 8-24; C-terminus assumed)	39.77* pmol/mL	22.71** pmol/mL		
